This assay has as its system c-myc in 22RV-1 cells. Description: Human c-myc ELISA assay. It counts as cell-based. Particulars: Homo sapiens; for Emax: 22Rv1, 18 h, read-out: Degradation of BRD4: Maximum inhibition (%) c-Myc ELISA in 22RV1 cells; for DC50: 22Rv1, read-out: Degradation of BRD4: DC50 (uM) c-Myc ELISA in 22RV1 cells. Put shortly: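 22RV-1 cells treated 18 h with 8-point 1:3 compound dilutions (final top 300 nM or 1 μM, 0.1% DMSO). Cells lysed in RIPA buffer with protease/phosphatase inhibitors, and c-myc protein in cleared lysate quantified by ELISA against a standard curve. DC50 reported for c-myc suppression.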

This note sets out measurements from patent publication US11554171B2, “Compounds and methods for the targeted degradation of bromodomain-containing proteins” (Arvinas Operations, Inc., priority 2015, dated 2023).

The term DC50 denotes the concentration giving 50% degradation. In the case of `Cc1ncsc1-c1ccc([C@H](C)NC(=O)[C@@H]2C[C@@H](O)CN2C(=O)[C@@H](C(C)C)n2cc(-c3cccc(O[C@H]4C[C@@H](NC(=O)C[C@@H]5N=C(c6ccc(Cl)cc6)c6c(sc(C)c6C)-n6c(C)nnc65)C4)c3)cn2)cc1` [Example 241], the Emax was determined as 49.8% and the DC50 was above 1 µM.

For `Cc1ncsc1-c1ccc([C@H](C)NC(=O)[C@@H]2C[C@@H](O)CN2C(=O)[C@@H](NC(=O)[C@H]2CC[C@@H](COCCCNC(=O)C[C@@H]3N=C(c4ccc(Cl)cc4)c4c(sc(C)c4C)-n4c(C)nnc43)O2)C(C)(C)C)cc1` [Example 187], the Emax was 98.5% and the half-maximal degradation concentration (DC50) lay in the range of 0.01 to 0.1 µM.

For the compound `Cc1ncsc1-c1ccc(CNC(=O)[C@@H]2C[C@@H](O)CN2C(=O)[C@@H](C(C)C)n2cc(-c3ccnc(O[C@H]4C[C@@H](NC(=O)C[C@@H]5N=C(c6ccc(Cl)cc6)c6c(sc(C)c6C)-n6c(C)nnc65)C4)c3)cn2)cc1` [Example 177, (2S,4R)-4-hydroxy-N-{[4-(4-methyl-1,3-thiazol-5-yl)phenyl]methyl}-1-[(2R)-3-methyl-2-(4-{2-[(1,3-cis)-3-{2-[(9S)-7-(4-chlorophenyl)-4,5,13-trimethyl-3-thia-1,8,11,12-tetraazatricyclo[8.3.0.0^2,^6]trideca-2(6),4,7,10,12-pentaen-9-yl]acetamido}cyclobutoxy]pyridin-4-yl}-1H-pyrazol-1-yl)butanoyl]pyrrolidine-2-carboxamide], the Emax is 39.3% and the DC50 was above 1 µM.

As to `Cc1ncsc1-c1ccc(CNC(=O)[C@@H]2C[C@@H](O)CN2C(=O)[C@@H](NC(=O)COc2ccc(S(=O)(=O)CCNC(=O)C[C@@H]3N=C(c4ccc(Cl)cc4)c4c(sc(C)c4C)-n4c(C)nnc43)cc2)C(C)(C)C)cc1` [Example 113], the Emax amounted to 88.5% and the DC50 lay within 0.01 to 0.1 µM.

Turning to `Cc1ncsc1-c1ccc(CNC(=O)[C@@H]2C[C@@H](O)CN2C(=O)[C@@H](C(C)C)n2cc(-c3cccc(OCCNC(=O)C[C@@H]4N=C(c5ccc(Cl)cc5)c5c(sc(C)c5C)-n5c(C)nnc54)c3)cn2)cc1` [Example 162], the Emax came to 7.62% and the DC50 is above 1 µM.

Consider `Cc1ncsc1-c1ccc([C@H](C)NC(=O)[C@@H]2C[C@@H](O)CN2C(=O)[C@@H](NC(=O)COc2ccc(O[C@@H](C)CNC(=O)C[C@@H]3N=C(c4ccc(Cl)cc4)c4c(sc(C)c4C)-n4c(C)nnc43)cc2)C(C)(C)C)cc1` [Example 135, (2S,4R)-1-[(2S)-2-{2-[(6-{[(2S)-1-{2-[(9S)-7-(4-chlorophenyl)-4,5,13-trimethyl-3-thia-1,8,11,12-tetraazatricyclo[8.3.0.0^2,^6]trideca-2(6),4,7,10,12-pentaen-9-yl]acetamido}propan-2-yl]oxy}pyridin-3-yl)oxy]acetamido}-3,3-dimethylbutanoyl]-4-hydroxy-N-[(1S)-1-[4-(4-methyl-1,3-thiazol-5-yl)phenyl]ethyl]pyrrolidine-2-carboxamide], for which the Emax amounted to 99% and the half-maximal degradation concentration (DC50) was below 0.01 µM.

Take `Cc1ncsc1-c1ccc(CNC(=O)[C@@H]2C[C@@H](O)CN2C(=O)[C@H](c2cnn(CCCOCCNC(=O)C[C@@H]3N=C(c4ccc(Cl)cc4)c4c(sc(C)c4C)-n4c(C)nnc43)c2)C(C)C)cc1` [Example 145]: the Emax was determined as 15.9% and the DC50 is above 1 µM.

As for `Cc1ncsc1-c1ccc([C@H](C)NC(=O)[C@H]2C[C@H](O)CN2C(=O)[C@@H](NC(=O)COc2ccc(O[C@H]3C[C@@H](NC(=O)C[C@@H]4N=C(c5ccc(Cl)cc5)c5c(sc(C)c5C)-n5c(C)nnc54)C3)nc2)C(C)(C)C)cc1` [Example 169], the Emax is 42.2% and the DC50 is above 1 µM.
